34 molecules from US9138393B2, “Cosmetic compositions containing substituted azole and methods for improving the appearance of aging skin” (The Proctor & Gamble Company, priority 2013, dated 2015) can be followed below.

One data set addresses CYP3A4 (Homo sapiens (Human), UniProt P08684). Nature of the data set: In vitro CYP3A4 inhibition assay (P450-GLO Assay kit, Promega). The text has this: The metabolism of retinoic acid and vitamin D in the skin is incompletely understood, but there is evidence for the involvement of CYP26A1, CYP3A4 and CYP2C8 in catalyzing the 4-hydroxylation of all-trans RA to 4-hydroxy-RA. It is believed, without being limited by theory, that CYP3A4 may be particularly important for ATRA metabolism in the skin. This is because CYP3A4 is expressed in skin, involved in RA metabolism, a CYP with one of the broadest substrate specificities of all of the known CYPs and available as a human recombinant protein in a commercial kit. Thus, a commercially available CYP3A4 assay was used as a surrogate to predict RAMBA potential in the skin.
The commercially available P450-GLO™ Assay kit (Promega Corporation, Madison Wis.) was used to screen various compounds for potential CYP activity, specifically CYP3A4A inhibition activity. CYP3A4A is thought to be among the primary CYP isoforms responsible for retinoic acid metabolism in the skin.
A commercially available P450-GLO™ Assay kit (Promega Corporation, Madison Wis.) is used to screen various compounds for CYP3A4A inhibition activity. CYP3A4A is thought to be one of the primary CYP isoforms responsible for retinoic acid metabolism in the skin.

Data set [1] has as its system ATRA 4-hydroxylase (CYP) activity. Nature of the data set: in vitro. Conditions: pig, pH 7.4. The text has this:
(§1) Cytochrome P450 is a large and diverse group of enzymes that catalyze the oxidation of organic substances. […] Applicant evaluated the potential RAMBA activity of several azoles using pig liver microsomes, a rich source of CYP activity, comprising many different CYP 450 isoforms. […] As understanding in this area has progressed, a more specific CYP inhibition assay can be used to provide better predictivity of activity in human skin. Nevertheless, this assay may still be used as a general predictor of overall CYP activity.
(§2) All procedures were carried out under minimal light in order to prevent degradation of the retinoid samples.
(§3) Microsomal preparation: One lobe of fresh pig liver is obtained (e.g., at about the time of slaughter from a food-processing company) and immediately placed in ice cold 15 mM KH2PO4/250 mM sucrose (pH 7.4) and kept on ice during transportation. A 10 g sample of liver is minced and homogenized in 30 mL of homogenization buffer (15 mM KH2PO4/250 mM sucrose) using a Tekmar homoginizer or equivalent by pulsing 3 times with 20 second pulses. […] The remaining pig liver may be stored at −80° C. The homogenates from the 8 samples are pooled and centrifuged at 13,000×g for 20 minutes at 4° C. to remove crude debris. The supernatant is further centrifuged at 100,000×g for 70 minutes at 4° C. The microsomal pellets are re-suspended into 50 mL of 150 mM KH2PO4/1 mM DTT (pH 7.4) and 1 mL aliquots are stored at −80° C.
(§4) 100-150 μg of pig liver microsomal protein in 150 mM KH2PO4 is incubated at 37° C. in the presence of radiolabeled ATRA and 5 mM NADPH for 90 min. The final ATRA concentration is 1 μM, as a combination of [20-Methyl-^3H]ATRA and unlabeled ATRA. Initially, radiolabeled ATRA may be used to assist in validating the method. Once retention times of retinoid metabolites are identified, unlabeled ATRA is used for screening. Compounds tested as possible competitive substrates are added to the assay 10 min prior to the addition of ATRA. Ethanol, containing 0.1% butylated hydroxytoluene (BHT) as an antioxidant, is used to stop the reactions. For recovery of ATRA the pH of reactions are adjusted to 3.0 before extraction with 0.1N HCl. Retinoids are extracted from the protein aqueous phase with 4 mL hexane, 1 ml 100 μg/ml BHT in water (pH 3). An additional 4 mL of hexane (pH 3) is used for a second extraction. The organic extractions are pooled, evaporated to dryness using a speed vac, and resuspended in 62.5 μl acetonitrile containing 1 mg/ml BHT. Samples are analyzed by HPLC.HPLC separation of retinoids. […] Mobile phases used for gradient elution of retinoids are those of Duell et al., J. Clin. Invest. […] Mobile phase A is acetonitrile:0.02 M ammonium acetate:acetic acid (1:1:0.01) and mobile phase B is acetonitrile:0.2M ammonium acetate:acetic acid (19:1:0.008). At the start of the HPLC run, solvent A is run 100% followed by a linear gradient to solvent B at 3 minutes, a shallow gradient to 81% solvent B at 38 minutes, and 100% solvent B at 40 minutes. […] Effluent from the HPLC column flows directly into a flow-through scintillation spectrometer […]. Because of the sensitivity limitations of the β-RAM spectrometer, it is not used to quantitate peak areas but rather to confirm ATRA and ATRA 4-hydroxylase activity. Calculated peaks areas (using Millenium software—Waters Corp.) of ATRA and ATRA metabolites are used to quantify relative activity levels.

For another data set, the system named is facial skin. Kind of data set: Method of treatment: topical application to the face, appearance of aging skin. The format is in vivo, human. Particulars: 0.55% by weight in a vehicle, entire face, one to two times a day for 8 weeks. The text has this: A test subject topically applies a composition comprising 0.55% 1-phenylimidazole, by weight in a vehicle, to the entire face one to two times a day for 8 weeks.

In data set [2] the test system is ATRA 4-hydroxylase (CYP) activity of pig liver microsomes. Nature of the data set: In vitro ATRA 4-hydroxylase activity assay to determine CYP inhibition (pig liver microsomes). Conditions: pig liver microsomes.
From the text: as §1, §2, §3, §4

[3] abbreviates: human recombinant CYP3A4, P450-GLO kit.
[4] abbreviates: read-out: hit / no hit (CYP3A4 inhibition), human recombinant CYP3A4, P450-GLO kit.

Sequence of CYP3A4 (P08684 whole entry): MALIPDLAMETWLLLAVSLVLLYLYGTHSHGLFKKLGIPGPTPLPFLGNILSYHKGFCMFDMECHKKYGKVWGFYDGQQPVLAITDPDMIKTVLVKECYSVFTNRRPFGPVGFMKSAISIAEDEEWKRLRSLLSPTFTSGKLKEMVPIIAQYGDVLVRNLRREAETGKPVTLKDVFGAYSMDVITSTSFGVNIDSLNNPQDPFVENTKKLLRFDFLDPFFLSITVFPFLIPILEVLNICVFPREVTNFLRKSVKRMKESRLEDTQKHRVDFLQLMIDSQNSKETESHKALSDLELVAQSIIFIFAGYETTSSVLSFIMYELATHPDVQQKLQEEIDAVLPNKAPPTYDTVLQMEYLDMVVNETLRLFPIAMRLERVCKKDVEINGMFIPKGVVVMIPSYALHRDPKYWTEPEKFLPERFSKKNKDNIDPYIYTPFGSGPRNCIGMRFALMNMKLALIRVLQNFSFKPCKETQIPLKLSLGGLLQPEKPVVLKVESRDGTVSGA

In the case of `CC(=O)n1ccnc1` [1-Acetylimidazole], the IC50 on CYP3A4 (setting [3]) and at CYP3A4 (setting [4]) was above 10 µM in each case.
As to `Cn1ccnc1` [1-Methylimidazole], the IC50 at CYP3A4 (human, recombinant enzyme) is above 10 µM.
On to `C=Cn1ccnc1` [1-Vinylimidazole], for which the IC50 at CYP3A4 (setting [3]) and at CYP3A4 (setting [4]) was above 10 µM each time.
Take `Cc1nccn1Cc1ccccc1` [1-benzyl-2-methylimidazole]: in data set [1], the IC50 at 90 min was 308 µM.
Take `c1ccc(Cn2ccnc2)cc1` [1-benzylimidazole]: the IC50 in data set [1] came out at 77.5 µM.
On to `c1ccc(-n2ccnc2)cc1` [1-phenylimidazole], for which the “appearance of aging facial skin after treatment” value in the data set with facial skin is “facial skin feels and appears less aged”. The IC50 was below 10 µM at CYP3A4, 1 µM at CYP3A4 (setting [3]) and 52.5 µM in data set [1]. Also, the “inhibitory activity in the CYP3A4 assay (in words)” value at CYP3A4 is “showed inhibitory activity”. In data set [2], the “CYP inhibitory activity (in words)” value is “elicit CYP inhibitory activity”.
In the case of `O=C(n1ccnc1)n1ccnc1` [1′-1-Carbonylimidazole], the IC50 on CYP3A4 (setting [3]) and on CYP3A4 (setting [4]) was above 10 µM in each case.
`Clc1ccccc1-c1nc2ccccc2[nH]1` [2-(2-Chlorophenyl) benzimidazole]: the IC50 on CYP3A4 (setting [3]) and at CYP3A4 (setting [4]) was above 10 µM in each case.
As to `CCCCc1nc(C=O)c(Cl)[nH]1` [2-Butyl-4-chloro-5-formylimidazole], at CYP3A4 (human, recombinant enzyme), the IC50 was above 10 µM.
For the molecule `CCc1nc(C)c[nH]1` [2-Ethyl-4-methyl-imidazole], the IC50 on CYP3A4 (setting [3]) and on CYP3A4 (setting [4]) was above 10 µM each time.
With `CCc1ncc[nH]1` [2-Ethylimidazole], at CYP3A4 (human, recombinant enzyme), the IC50 was above 10 µM.
Consider `Cc1ncc[nH]1` [2-Methylimidazole], for which the IC50 at CYP3A4 (setting [3]) and on CYP3A4 (setting [4]) was above 10 µM throughout.
In the case of `c1ccc(-c2ncc[nH]2)cc1` [2-phenylimidazole, 2-Phenylimidazole], the “inhibitory activity in the CYP3A4 assay (in words)” value on CYP3A4 is recorded as “did not”. Besides, the IC50 is above 10 µM at CYP3A4 (setting [3]), above 10 µM at CYP3A4 (setting [4]) and above 500 µM in data set [1]. Moreover, the “CYP inhibitory activity (in words)” value in data set [2] is on record as “lacked any significant inhibitory activity”.
On to `c1ccc(-c2nc[nH]c2-c2ccccc2)cc1` [4,5-diphenylimidazole], for which the IC50 at 90 min in data set [1] stood at 100 µM.
For the molecule `CC(=O)c1ccc(-n2ccnc2)cc1` [4′-(Imidazol-1 yl) acetophenome], the IC50 on CYP3A4 is below 10 µM.
Take `Clc1ncnc2[nH]cnc12` [6-Chloropurine]: the IC50 at CYP3A4 (human, recombinant enzyme) was above 10 µM.
On the same count and under the same terms, for `Nc1nc[nH]n1` [Amitrol] the value was above 10 µM.
`CCCCNC(=O)n1c(NC(=O)OC)nc2ccccc21` [Benomyl]: the IC50 at CYP3A4 (setting [3]) and at CYP3A4 (setting [4]) was above 10 µM in each case.
With `c1ccc2[nH]cnc2c1` [Benzimidazole], the IC50 on CYP3A4 (setting [3]) and at CYP3A4 (setting [4]) was above 10 µM in each case.
As to `CC1=N[C@H](C(=O)O)CCN1` [Ectoine], on CYP3A4 (human, recombinant enzyme), the IC50 is above 10 µM.
On to `c1coc(-c2nc3ccccc3[nH]2)c1` [Fuberidazole], for which the IC50 on CYP3A4 (setting [3]) and at CYP3A4 (setting [4]) was above 10 µM in each case.
Regarding `CC(NC(=O)[C@@H](N)CCC(=O)O)c1ncc[nH]1` (stereo partly shown) [Glutamylamidoethyl imidazole], the IC50 at CYP3A4 (human, recombinant enzyme) is above 10 µM.
For the molecule `N=C(N)c1ccc(OCCCCCCOc2ccc(C(=N)N)cc2)cc1` [Hexamidine diisethionate], the IC50 on CYP3A4 (setting [3]) and at CYP3A4 (setting [4]) was above 10 µM throughout.
As for `N[C@@H](Cc1c[nH]cn1)C(=O)O` [Histidine], the IC50 on CYP3A4 (human, recombinant enzyme) was above 10 µM.
Still for that read-out and setting: for `N[C@@H](Cc1c[nH]c2ccccc12)C(=O)O` [L-Tryptophan] the value was above 10 µM.
Take `c1ccc(-c2n[nH]cc2-c2ccnc3ccccc23)nc1` [LY-364947]: the IC50 on CYP3A4 (human, recombinant enzyme) was above 10 µM.
In the case of `Cc1cccc(C)c1N(Cn1cccn1)C(=O)CCl` [Metazachlor], the IC50 at CYP3A4 (setting [3]) and at CYP3A4 (setting [4]) was above 10 µM in each case.
With `Cc1ccc2cc3c(ccc4ccccc43)c3c2c1CC3` [Methyl- cholanthrene], on CYP3A4 (setting [3]), the IC50 is above 10 µM and the “hit / no hit (CYP3A4 inhibition)” value is listed as “Near Hit”.
Consider `CCc1cccc(C)c1N(C(=O)CCl)C(C)COC` (stereo not shown) [Metolachlor], for which the IC50 against CYP3A4 was above 10 µM.
In turn, `CC(C)(C(=O)c1cccnc1)c1cccnc1` [Metyrapone] showed an IC50 against CYP3A4 below 10 µM.
Take `NCCCn1ccnc1` [N-(3-Aminopropyl) imidazole]: at CYP3A4 (human, recombinant enzyme), the IC50 is above 10 µM.
For the molecule `O=C(/C=C/C=C/c1ccc2c(c1)OCO2)N1CCCCC1` [Piperine], on CYP3A4 (human, recombinant enzyme), the IC50 was below 10 µM.
Consider `Cn1c(=O)c2[nH]cnc2n(C)c1=O` [Theophylline], for which the IC50 on CYP3A4 (setting [4]) is above 10 µM.
Consider `CC(=O)/C=C/C1=C(C)CCCC1(C)C` [β-Ionone], for which the IC50 at CYP3A4 (human, recombinant enzyme) was above 10 µM.
